Test results published in US20240335424A1, “COMPOSITIONS AND METHODS FOR TREATING LIPOMA PAIN” (Raziel Therapeutics Ltd., priority 2021, published 2024).
Entries after “also recorded” stand apart in the source; their conditions may differ.

How the values were obtained:
Type in all cases: in vivo, human
[1] = system: Dercum's disease (DD) lipomas; experiment: Phase 2b clinical trial: lipoma pain by Comparative Pain Scale; settings: for Pain Score: Average per patient, Mean / Pain score: All lipomas, Mean: Comparative Pain Scale 0-10; for Pain score: All lipomas, Mean / Change from baseline in Pain Score: All lipomas, Relative Change from baseline, Mean: per lipoma analysis
Text: The clinical trial described herein was a double-blind, randomized, placebo-controlled phase 2b clinical trial for the evaluation of safety and efficacy of Compound 1 (5-(3,6-dibromo-9H-carbazol-9-yl)-N,N,N-trimethylpentan-1-aminium, provided as a chloride salt, also designated Compound 1A), in subjects having Dercum's disease (DD) lipomas. Study Objectives. The primary objective was to evaluate the average percent reduction in lipoma height on day 84 after injection vs. baseline in the treatment group compared to the placebo group. Efficacy was determined by ultrasound assessment of the lipoma/nodule dimensions after treatment vs. baseline. The key secondary objective was assessment of lipoma/nodule associated pain using the Comparative Pain Scale. Safety was assessed by frequency of adverse events and by change-from-baseline values for vital signs, clinical laboratory and ECG. Study Design. This was a double blind, multi-center, randomized, placebo-controlled clinical trial in DD subjects having lipomas. A total of 38 DD patients were enrolled into the study. Patients were randomized in approximately a 1:1 ratio into either the intervention or the placebo arm. Twenty (20) subjects, having a total of 125 lipomas, were treated with Compound 1. Eighteen (18) subjects, having a total of 110 lipomas, were treated with placebo. Once the study ended and codes were opened, 84 days after dosing. Subjects received their study treatment on a single occasion in multiple injections. Dosing was calculated according to lipoma size (diameter) as determined by ultrasound. Subjects were dosed in accordance with Table 1. Injections were perpendicular (90°) to injected skin surface and spread randomly, at least 1 cm apart. At least 4 lipomas/nodules, preferably 6, and no more than 8, were injected per subject. Compound 1 dose per injection site was 5 mg, and a distance of 1-3 cm between injection points was maintained, to allow good distribution of Compound 1 within lipoma fat. A maximal dose of up to 240 mg/subject (a total of 48 injections of 5 mg/injection) was allowed in this study and the highest actual tested dose was 200 mg/subject (40 injections into 4-8 lipomas). A total of 20 patients were treated with Compound 1 and a total of 18 patients were treated with placebo. Primary endpoint was the average percent reduction in lipoma/noduleheight on day 84 after injection vs baseline-evaluated by ultrasound in the Compound 1 treatment group compared to the placebo group. Key secondary endpoint was reduction in local pain score per lipoma/nodule on Day 84 vs. baseline as measured by the Comparative Pain Scale. Comparative pain scale ranked the pain from a score from 0 to 10. A score of 0 indicated no pain, a score of 1-3 indicated minor pain, a score of 4-6 indicated moderate pain and a score of 7-10 indicated severe pain. Pain was compared between the intervention (Compound 1) and placebo groups on 2 levels-(1) on the patient level and (2) by lipomas, i.e. comparison between all injected lipomas before and after injection. Study Drug. Compound 1 was administered as a ready to use liquid for injection into subcutaneous fat, supplied in a 1 vial kit. Each vial contains 250 mg Compound 1/5 mL (50 mg/ml) solution Compound 1 in a vehicle comprised of water, propylene glycol and surfactant. The formulation is described in Table 2. Placebo was a solution comprised of vehicle only. Each injection of Compound 1 and placebo contained 0.1 ml. The vehicle was a ready-to-use liquid for injection into subcutaneous fat, supplied in a 1-vial kit. One vial contained 5 mL and had similar composition as the Compound 1 drug product, without the active substance. The components are: Tween-80, propylene glycol, benzyl alcohol, and water. The vehicle was manufactured and packed by […] (Israel) and complies with cGMP requirements. […]

[2] = system: Dercum's disease (DD) lipomas; experiment: Phase 2b clinical trial: lipoma/nodule height by ultrasound; settings: day 84 after injection vs. baseline, compared to placebo
Text: The clinical trial described herein was a double-blind, randomized, placebo-controlled phase 2b clinical trial for the evaluation of safety and efficacy of Compound 1 (5-(3,6-dibromo-9H-carbazol-9-yl)-N,N,N-trimethylpentan-1-aminium, provided as a chloride salt, also designated Compound 1A), in subjects having Dercum's disease (DD) lipomas. Study Objectives. The primary objective was to evaluate the average percent reduction in lipoma height on day 84 after injection vs. baseline in the treatment group compared to the placebo group. Efficacy was determined by ultrasound assessment of the lipoma/nodule dimensions after treatment vs. baseline. The key secondary objective was assessment of lipoma/nodule associated pain using the Comparative Pain Scale. Safety was assessed by frequency of adverse events and by change-from-baseline values for vital signs, clinical laboratory and ECG. Study Design. […] Dosing was calculated according to lipoma size (diameter) as determined by ultrasound. […] Primary endpoint was the average percent reduction in lipoma/noduleheight on day 84 after injection vs baseline-evaluated by ultrasound in the Compound 1 treatment group compared to the placebo group. Key secondary endpoint was reduction in local pain score per lipoma/nodule on Day 84 vs. baseline as measured by the Comparative Pain Scale. […]

[3] = Phase 2b clinical trial: safety (adverse events, vital signs, clinical laboratory, ECG); settings: up to 200 mg/subject, subcutaneous injection into lipomas
Text: The clinical trial described herein was a double-blind, randomized, placebo-controlled phase 2b clinical trial for the evaluation of safety and efficacy of Compound 1 (5-(3,6-dibromo-9H-carbazol-9-yl)-N,N,N-trimethylpentan-1-aminium, provided as a chloride salt, also designated Compound 1A), in subjects having Dercum's disease (DD) lipomas.
Study Objectives. The primary objective was to evaluate the average percent reduction in lipoma height on day 84 after injection vs. baseline in the treatment group compared to the placebo group. Efficacy was determined by ultrasound assessment of the lipoma/nodule dimensions after treatment vs. baseline. The key secondary objective was assessment of lipoma/nodule associated pain using the Comparative Pain Scale. Safety was assessed by frequency of adverse events and by change-from-baseline values for vital signs, clinical laboratory and ECG.
Study Design. This was a double blind, multi-center, randomized, placebo-controlled clinical trial in DD subjects having lipomas. A total of 38 DD patients were enrolled into the study. Patients were randomized in approximately a 1:1 ratio into either the intervention or the placebo arm. Twenty (20) subjects, having a total of 125 lipomas, were treated with Compound 1. Eighteen (18) subjects, having a total of 110 lipomas, were treated with placebo. Once the study ended and codes were opened, 84 days after dosing.
At least 4 lipomas/nodules, preferably 6, and no more than 8, were injected per subject. Compound 1 dose per injection site was 5 mg, and a distance of 1-3 cm between injection points was maintained, to allow good distribution of Compound 1 within lipoma fat. A maximal dose of up to 240 mg/subject (a total of 48 injections of 5 mg/injection) was allowed in this study and the highest actual tested dose was 200 mg/subject (40 injections into 4-8 lipomas). A total of 20 patients were treated with Compound 1 and a total of 18 patients were treated with placebo.

[4] = Day 84, compared to the placebo group
[5] = Visit 2 - Baseline/Treatment (Day 0), prior to injection
[6] = Visit 5 - Day 28 post treatment
[7] = Visit 6 - Day 56 post treatment
[8] = Visit 7 - Day 84 post treatment

Compound: C[N+](C)(C)CCCCCn1c2ccc(Br)cc2c2cc(Br)ccc21 [Compound 1, 5-(3,6-dibromo-9H-carbazol-9-yl)-N,N,N-trimethylpentan-1-aminium]
- average pain reduction per patient (by-patient analysis) ([1]; 84 days after treatment, vs. 36.82% in placebo, P=0.98 as printed): 56.37%
- average pain reduction per lipoma (all-lipoma analysis) ([1]; 84 days after treatment, vs. 37.50% in placebo, p=0.0004 t-test, p 0.079 mixed model): 59.06%
- reduction in pain vs. placebo, by-lipoma analysis [1, 4]: significant reduction in pain per lipoma; also recorded: statistically significant reduction in pain
- reduction of pain vs. placebo, per-patient analysis [1, 4]: a trend for reduction of pain
- Pain Score: Average per patient, Mean [1, 5]: 4.89
- Pain score: All lipomas, Mean [1, 5]: 4.86
- Change from baseline in Pain Score: Average per patient, Relative Change from baseline, Mean [1, 6]: −41.76%
- Pain Score: Average per patient, Mean [1, 6]: 2.82
- Pain score: All lipomas, Mean [1, 6]: 2.72
- Change from baseline in Pain Score: All lipomas, Relative Change from baseline, Mean [1, 6]: −41.55%
- Change from baseline in Pain Score: Average per patient, Relative Change from baseline, Mean [1, 7]: −43.53%
- Pain Score: Average per patient, Mean [1, 7]: 2.56
- Pain score: All lipomas, Mean [1, 7]: 2.38
- Change from baseline in Pain Score: All lipomas, Relative Change from baseline, Mean [1, 7]: −46.74%
- Change from baseline in Pain Score: Average per patient, Relative Change from baseline, Mean [1, 8]: −56.37%
- Pain Score: Average per patient, Mean [1, 8]: 2.03
- Pain score: All lipomas, Mean [1, 8]: 1.86
- Change from baseline in Pain Score: All lipomas, Relative Change from baseline, Mean [1, 8]: −59.06%
- effect of a single dose injected into lipomas on lipoma-associated pain ([1]; single dose, via a single injection or multiple injections): significantly alleviates lipoma-associated pain
- reduction in lipoma height [2]: not significant
- adverse events, kind [3]: mostly injection site edema pain and pruritus
- changes in blood parameters [3]: no clinically significant changes in blood parameters
- serious adverse events [3]: no reported serious adverse events
- tolerability [3]: generally well tolerated
